Data reported in patent publication EP1561465A2, “Methods of use of fluoroquinolone compounds against bacteria” (LG Life Sciences, Ltd., priority 1999, dated 2001).
Converted amounts (≈) assume the structure as drawn. Like-named read-outs stand apart in the source and are kept apart here.

What was measured:
Type in all cases: cell-based
[1] = tested on: Haemophilus influenzae; assay: MIC by two-fold serial agar dilution, Sensitivity Disk agar-N (Kitasato isolates); settings: Haemophilus influenzae (24)
[2] = tested on: Streptococcus pneumoniae; assay: as above; settings: for MIC90: read-out: MIC90; for MIC: read-out: MIC Range
[3] = tested on: Staphylococcus aureus; assay: MIC by NCCLS broth microdilution, 1100 Japanese clinical isolates 1997-1998; settings: for MIC: Staphylococcus aureus quinolone resistant
[4] = tested on: Streptococcus pneumoniae; assay: as above; settings: for MIC50 / MIC90 / MIC: Streptococcus pneumoniae; for MIC50: read-out: MIC50; for MIC90: read-out: MIC90; for MIC: Streptococcus pneumoniae quinolone resistant
[5] = tested on: Enterococcus faecalis; assay: as above; settings: for MIC50 / MIC90: Enterococcus faecalis; for MIC90: read-out: MIC90
[6] = tested on: Enterococcus faecium; assay: as above; settings: for MIC: Enterococcus faecium
[7] = tested on: Enterococcus gallinarum; assay: as above; settings: Enterococcus gallinarum, GALLINARUM, Enterococcus gallinarum (vanC1), read-out: MIC
[8] = tested on: Klebsiella pneumoniae; assay: as above; settings: Klebsiella pneumoniae (n=35)
[9] = tested on: Enterobacter cloacae; assay: as above; settings: Enterobacter cloacae (n=40)
[10] = tested on: Salmonella spp.; assay: as above; settings: Salmonella spp. (n=29)
[11] = tested on: Gram positive anaerobic and facultative anaerobic pathogens; assay: microbe, parasite or virus in culture
[12] = Staphylococcus aureus oxacillin susceptible (n=41)
[13] = Staphylococcus aureus, Staphylococcus aureus oxacillin resistant (n=57)
[14] = Streptococcus pneumoniae amoxicillin resistant (n=40)
[15] = Streptococcus pneumoniae amoxicillin susceptible (n=35)
[16] = Streptococcus pneumoniae erythromycin resistant (n=34)
[17] = Streptococcus pneumoniae erythromycin susceptible (n=11)
[18] = Enterococcus faecalis ciprofloxacin resistant (n=15)
[19] = Enterococcus faecalis ciprofloxacin susceptible (n=24)

C[C@@H]1CN(c2c(F)c(N)c3c(=O)c(C(=O)O)cn(C4CC4)c3c2F)C[C@H](C)N1 [Sparfloxacin, sparfloxacin]
MIC50 [1]: 0.016 mg/L (≈ 0.0408 µM)
MIC90 [1]: 0.031 mg/L (≈ 0.079 µM)
MIC Range [1]: ≤0.004 to 0.063 mg/L
MIC50 ([2]; Ciprofloxacin-susceptible (94)): 0.125 mg/L (≈ 0.319 µM)
MIC Range ([2]; Minocycline-resistant (37)): 0.125 to 8 mg/L
MIC50 ([2]; Streptococcus pneumoniae): 0.125 mg/L (≈ 0.319 µM)
MIC90 ([2]; Streptococcus pneumoniae, 18 h, Ciprofloxacin-resistant (21), ciprofloxacin MIC ≥8 µg/ml): 8 mg/L (≈ 20.4 µM)
MIC ([2]; Streptococcus pneumoniae, 18 h, Ciprofloxacin-resistant (21)): 0.25 to 8 mg/L (≈ 0.637 to 20.4 µM)
MIC ([2]; Streptococcus pneumoniae, 18 h, Ciprofloxacin-susceptible (94)): 0.063 to 0.5 mg/L (≈ 0.161 to 1.27 µM)
MIC ([2]; Streptococcus pneumoniae, 18 h, Penicillin-resistant (19)): 0.063 to 1 mg/L (≈ 0.161 to 2.55 µM)
MIC ([2]; Streptococcus pneumoniae, 18 h): 0.125 to 8 mg/L (≈ 0.319 to 20.4 µM)
MIC50 ([2]; Streptococcus pneumoniae, Ciprofloxacin-resistant (21), read-out: MIC50): 4 mg/L (≈ 10.2 µM)
MIC90 ([2]; Streptococcus pneumoniae, Ciprofloxacin-susceptible (94)): 0.25 mg/L (≈ 0.637 µM)
MIC50 ([2]; Streptococcus pneumoniae, Erythromycin-resistant (37), read-out: MIC50): 0.25 mg/L (≈ 0.637 µM)
MIC90 ([2]; Streptococcus pneumoniae, Erythromycin-resistant (37)): 0.5 mg/L (≈ 1.27 µM)
MIC50 ([2]; Streptococcus pneumoniae, Minocycline-resistant (37), read-out: MIC50): 0.25 mg/L (≈ 0.637 µM)
MIC90 ([2]; Streptococcus pneumoniae, Minocycline-resistant (37)): 0.5 mg/L (≈ 1.27 µM)
MIC90 ([2]; Streptococcus pneumoniae, Penicillin-resistant (19)): 0.5 mg/L (≈ 1.27 µM)
MIC Range ([3]; Staphylococcus aureus oxacillin resistant (n=57)): 0.032 to 128 mg/L
MIC90 [3, 12]: 0.125 mg/L (≈ 0.319 µM)
MIC Range [3, 12]: 0.032 to 1 mg/L
MIC50 [3, 13]: 4 mg/L (≈ 10.2 µM)
MIC90 [3, 13]: 32 mg/L (≈ 81.5 µM)
MIC50 ([3]; Staphylococcus aureus, Staphylococcus aureus oxacillin susceptible (n=41)): 0.063 mg/L (≈ 0.161 µM)
MIC ([3]; Staphylococcus aureus, strain TMS1* (spontaneous mutant resistant to ciprofloxacin)): 0.125 mg/L (≈ 0.319 µM)
MIC ([3]; Staphylococcus aureus, strain TMS3, read-out: MIC): 128 mg/L (≈ 326 µM)
MIC ([3]; Staphylococcus aureus, strain TMS4, read-out: MIC): 8 mg/L (≈ 20.4 µM)
MIC ([3]; Staphylococcus aureus, strain TMS5, read-out: MIC): 8 mg/L (≈ 20.4 µM)
MIC ([3]; Staphylococcus aureus, strain TMS6, read-out: MIC): 2 mg/L (≈ 5.1 µM)
MIC Range [4, 14]: 0.125 to 4 mg/L
MIC Range [4, 15]: 0.032 to 4 mg/L
MIC Range [4, 16]: 0.032 to 4 mg/L
MIC Range [4, 17]: 0.125 to 0.25 mg/L
MIC50 [4, 14]: 0.25 mg/L (≈ 0.637 µM)
MIC90 [4, 14]: 0.25 mg/L (≈ 0.637 µM)
MIC50 [4, 15]: 0.25 mg/L (≈ 0.637 µM)
MIC90 [4, 15]: 0.5 mg/L (≈ 1.27 µM)
MIC50 [4, 16]: 0.25 mg/L (≈ 0.637 µM)
MIC90 [4, 16]: 0.25 mg/L (≈ 0.637 µM)
MIC50 [4, 17]: 0.25 mg/L (≈ 0.637 µM)
MIC90 [4, 17]: 0.25 mg/L (≈ 0.637 µM)
MIC ([4]; strain TMS1): 0.5 mg/L (≈ 1.27 µM)
MIC ([4]; strain TMS2): 8 mg/L (≈ 20.4 µM)
MIC Range [5, 18]: 0.5 to 64 mg/L
MIC Range [5, 19]: 0.5 to 1 mg/L
MIC50 [5, 18]: 16 mg/L (≈ 40.8 µM)
MIC90 [5, 18]: 64 mg/L (≈ 163 µM)
MIC50 [5, 19]: 0.5 mg/L (≈ 1.27 µM)
MIC90 [5, 19]: 1 mg/L (≈ 2.55 µM)
MIC50 ([6]; Enterococcus faecium (n=39)): 32 mg/L (≈ 81.5 µM)
MIC90 ([6]; Enterococcus faecium (n=39)): 64 mg/L (≈ 163 µM)
MIC Range ([6]; Enterococcus faecium (n=39)): 0.5 to 128 mg/L
MIC ([6]; Enterococcus faecium (vanA) vancomycin resistant, strain TMS1): 32 mg/L (≈ 81.5 µM)
MIC ([6]; Enterococcus faecium (vanA) vancomycin resistant, strain TMS2): 0.5 mg/L (≈ 1.27 µM)
MIC ([6]; Enterococcus faecium (vanA) vancomycin resistant, strain TMS3): 64 mg/L (≈ 163 µM)
MIC ([6]; Enterococcus faecium (vanA) vancomycin resistant, strain TMS4): 64 mg/L (≈ 163 µM)
MIC ([6]; Enterococcus faecium (vanA) vancomycin resistant, strain TMS5): 2 mg/L (≈ 5.1 µM)
MIC ([6]; Enterococcus laecium (van B) vancomycin resistant, strain TMS6): 64 mg/L (≈ 163 µM)
MIC ([6]; Enterococcus laecium (van B) vancomycin resistant, strain TMS7): 32 mg/L (≈ 81.5 µM)
MIC ([7]; strain TMS1): 0.25 mg/L (≈ 0.637 µM)
MIC ([7]; strain TMS2): 0.5 mg/L (≈ 1.27 µM)
MIC ([7]; strain TMS3): 0.5 mg/L (≈ 1.27 µM)
MIC ([7]; strain TMS4): 0.25 mg/L (≈ 0.637 µM)
MIC50 [8]: 0.032 mg/L (≈ 0.0815 µM)
MIC Range [8]: 0.016 to 2 mg/L
MIC90 ([8]; read-out: MIC90): 0.063 mg/L (≈ 0.161 µM)
MIC50 [9]: 0.032 mg/L (≈ 0.0815 µM)
MIC90 [9]: 1 mg/L (≈ 2.55 µM)
MIC Range [9]: ≤0.008 to 2 mg/L
MIC50 [10]: 0.032 mg/L (≈ 0.0815 µM)
MIC90 [10]: 0.063 mg/L (≈ 0.161 µM)
MIC Range [10]: 0.016 to 0.063 mg/L
MIC ([11]; Bifidobacterium adolescentis, ATCC15703): 0.5 mg/L (≈ 1.27 µM)
MIC ([11]; Bifidobacterium bifidum, JCM1255): 2 mg/L (≈ 5.1 µM)
MIC ([11]; Bifidobacterium breve, ATCC15700): 2 mg/L (≈ 5.1 µM)
MIC ([11]; Bifidobacterium longum, ATCC15707): 2 mg/L (≈ 5.1 µM)
MIC ([11]; Bifidobacterium pseudolongum, ATCC25526): 2 mg/L (≈ 5.1 µM)
MIC ([11]; Clostridioides difficile): 8 mg/L (≈ 20.4 µM)
MIC ([11]; Clostridium perfringens, ATCC13124): 0.125 mg/L (≈ 0.319 µM)
MIC ([11]; Clostridium septicum, ATCC12464): 0.125 mg/L (≈ 0.319 µM)
MIC ([11]; Cutibacterium acnes, ATCC11828): 0.25 mg/L (≈ 0.637 µM)
MIC ([11]; Eggerthella lenta, ATCC25559): 0.5 mg/L (≈ 1.27 µM)
MIC ([11]; Finegoldia magna, ATCC29328): 0.125 mg/L (≈ 0.319 µM)
MIC ([11]; Gemella morbillorum, ATCC27824): 0.25 mg/L (≈ 0.637 µM)
MIC ([11]; Lacticaseibacillus casei, JCM1134): 0.125 mg/L (≈ 0.319 µM)
MIC ([11]; Lactiplantibacillus plantarum, JCM1149): 8 mg/L (≈ 20.4 µM)
MIC ([11]; Lactobacillus acidophilus, JCM1132): 32 mg/L (≈ 81.5 µM)
MIC ([11]; Levilactobacillus brevis, JCM1059): 2 mg/L (≈ 5.1 µM)
MIC ([11]; Ligilactobacillus salivarius, JCM1231): 0.5 mg/L (≈ 1.27 µM)
MIC ([11]; Limosilactobacillus reuteri, JCM1112): 2 mg/L (≈ 5.1 µM)
MIC ([11]; Limosilactobacillus reuteri, JCM1173): 2 mg/L (≈ 5.1 µM)
MIC ([11]; Paraclostridium sordellii, ATCC9714): 2 mg/L (≈ 5.1 µM)
MIC ([11]; Parvimonas micra): 0.5 mg/L (≈ 1.27 µM)
MIC ([11]; Peptoniphilus asaccharolyticus): 0.25 mg/L (≈ 0.637 µM)
MIC ([11]; Peptoniphilus indolicus): 0.06 mg/L (≈ 0.153 µM)
MIC ([11]; Peptostreptococcus anaerobius, ATCC27337): 0.5 mg/L (≈ 1.27 µM)
MIC ([11]; Schaalia odontolytica): 4 mg/L (≈ 10.2 µM)
MIC ([11]; Staphylococcus saccharolyticus, ATCC14953): 0.25 mg/L (≈ 0.637 µM)
MIC ([11]; Streptococcus constellatus, ATCC27823): 0.5 mg/L (≈ 1.27 µM)
MIC ([11]; Streptococcus intermedius, ATCC27335): 0.5 mg/L (≈ 1.27 µM)
MIC ([11]; Thomasclavelia ramosa, ATCC25582): 4 mg/L (≈ 10.2 µM)
